Assay results: patent US10273233B2, “Inhibitors of influenza viruses replication” (Vertex Pharmaceuticals Incorporated, priority 2015, dated 2019)

Columns and labels:
Format in all cases: cell-based
[1] = tested on: A/Hong Kong/8/68; experiment: 3-day CP assay in MDCK cells; details: Influenza A virus
[2] = tested on: A/Chelyabinsk/1/200; experiment: 3-day CP assay in MDCK cells; details: Influenza A virus
[3] = tested on: A/Fukushima/141/2006; experiment: 3-day CP assay in MDCK cells; details: Influenza A virus
[4] = tested on: A/Nebraska/1/2006; experiment: 3-day CP assay in MDCK cells; details: Influenza A virus
[5] = tested on: A/Virginia/01/2006; experiment: 3-day CP assay in MDCK cells; details: Influenza A virus
[6] = tested on: A/Uruguay/716/2007; experiment: 3-day CP assay in MDCK cells; details: Influenza A virus
[7] = tested on: A/Texas/48/2009; experiment: 3-day CP assay in MDCK cells; details: Influenza A virus
[8] = tested on: A/Equine/Miami/63; experiment: microbe, parasite or virus in culture; details: Influenza A virus, MDCK
[9] = tested on: B/Mass/3/66; experiment: 3-day CP assay in MDCK cells; details: Influenza B virus

**Q.** For `CC(C)(C)[C@@H](CC(=O)O)Nc1nc(-c2c[nH]c3ncc(F)cc23)ncc1F` [Compound (1)], which EC50 [1] is on record?
**A.** The EC50 was 1.9 nM.

**Q.** What about the EC50 [2] of the same molecule?
**A.** The EC50 was 3.1 nM.

**Q.** And the EC50 [3]?
**A.** Its EC50 is 1.5 nM.

**Q.** What about the EC50 [4] of the same molecule?
**A.** The EC50 was 1.9 nM.

**Q.** What about the EC50 [5] of the same molecule?
**A.** Its EC50 is 12 nM.

**Q.** What about the EC50 [6] of the same molecule?
**A.** The EC50 was 1 nM.

**Q.** And the EC50 [7]?
**A.** The EC50 was 1.2 nM.

**Q.** And the EC50 [8]?
**A.** Its EC50 is 3.7 nM.

**Q.** What about the EC50 [9] of the same molecule?
**A.** The EC50 was > 10000 nM.
